Results on 9 molecules are retold here after ChEMBL document CHEMBL1201862, “PubChem BioAssay data set” (2004).

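Growth conditions: 96-well plates. Treatment: test compound, 48 hours, 5 concentrations. Analysis: linear interpolation between bracketing concentrations; unreached endpoints set to highest concentration. At the GI50, growth is halved.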 Calls of active or inactive are those of the source. Cut-off read from the data, not from the text of the source: active = GI50 up to about 1.1 µM and inactive = higher.

Some test systems named below: A549; CCRF-CEM; COLO 205; HCC 2998; HCT-116; HCT-15; HL-60; HT-29; Hs-578T; IGROV-1; MCF7; MOLT-4; Malme-3M; NCI-H23; PC-3; SNB-75; SR; T47D; TK-10; UO-31.
Common to all, as to experiment: DTP human tumour cell line panel, 48 h

Regarding `CCN(CC)CCC(=O)Nc1ccc2sc3ccccc3c(=O)c2n1`, the GI50 – broadly, the concentration giving 50% growth inhibition – with A549 is 17.3 µM (inactive); with CCRF-CEM, 14.5 µM (inactive); with COLO 205, 12.9 µM (inactive); in the assay on HCC 2998, 19.7 µM (inactive); with HCT-116 it was 12.5 µM (inactive); in the assay with HCT-15, 19.3 µM. For the same molecule, the GI50 was 7.98 µM (inactive) in the assay on HL-60; 36.7 µM (inactive) with HT-29; 20.7 µM (inactive) with Hs-578T; 16.5 µM (inactive) with IGROV-1; 13.3 µM (inactive) in the assay on MCF7; 7.78 µM (inactive) in the assay on MOLT-4. Besides, the GI50 in the assay on Malme-3M was 23.4 µM (inactive); in the assay on NCI-H23, 17.8 µM (inactive); with PC-3, 15.4 µM (inactive); in the assay on SNB-75, 8.55 µM (inactive); in the assay on SR, 15.9 µM (inactive); in the assay on T47D, 16.1 µM (inactive). The GI50 was 18 µM (inactive) with TK-10 and 10.4 µM (inactive) in the assay with UO-31.
In the case of `CC1=CC(=O)c2c(O)cccc2C1=O` [PLUMBAGIN], the GI50 in the assay with A549 is 11.5 µM (inactive); in the assay on CCRF-CEM it was 0.208 µM (active); in the assay on COLO 205, 1.86 µM (inactive); in the assay with HCC 2998 it was 2.07 µM (inactive); with HCT-116 it was 1.66 µM (inactive); with HCT-15 it was 1.7 µM. Besides, the GI50 was 0.152 µM (active) with HL-60; 1.89 µM (inactive) in the assay on HT-29; 2.91 µM (inactive) with Hs-578T; 1.78 µM (inactive) with IGROV-1; 1.79 µM (inactive) in the assay with MCF7; 0.236 µM (active) in the assay on MOLT-4. In addition, the GI50 in the assay with Malme-3M was 0.966 µM (active); in the assay with NCI-H23, 1.81 µM (inactive); in the assay on PC-3 it was 2.21 µM (inactive); in the assay on SNB-75, 5.51 µM (inactive); in the assay with SR, 1.69 µM (inactive); in the assay on T47D it was 0.434 µM (active). The results for the GI50 in the assay with TK-10 and in the assay on UO-31 were 1.71 µM (inactive) and 1.61 µM (inactive), respectively.
In the case of `Nc1nc(Cl)cc(NCC2(O)CC(CO)C2)n1` (stereo not given), the GI50 with A549 was > 100 µM (inactive); with CCRF-CEM it was > 100 µM (inactive); with COLO 205, > 100 µM (inactive); in the assay on HCC 2998, > 100 µM (inactive); with HCT-116, > 100 µM (inactive); in the assay with HCT-15, > 100 µM. Further, the GI50 in the assay with HL-60, in the assay on HT-29, in the assay on Hs-578T, in the assay with IGROV-1, with MCF7 and in the assay with MOLT-4 was > 100 µM (inactive) each time. For the same molecule, the GI50 in the assay with Malme-3M, with NCI-H23, in the assay with PC-3, in the assay on SNB-75, in the assay on SR and in the assay on T47D was > 100 µM (inactive) in each case. In addition, the GI50 in the assay with TK-10 and with UO-31 was > 100 µM (inactive) in each case.
Regarding `O=C(CCc1ccccc1)NCCc1ccc(O)c(O)c1`, the GI50 in the assay on A549 was 47.5 µM (inactive); in the assay on CCRF-CEM, 1.42 µM (inactive); in the assay with COLO 205, 17 µM (inactive); in the assay on HCC 2998 it was 53.5 µM (inactive); in the assay on HCT-116, 27.7 µM (inactive); in the assay with HCT-15, 31.3 µM. Also, the GI50 in the assay on HL-60 is 3.43 µM (inactive); in the assay on HT-29, 39.7 µM (inactive); with Hs-578T, > 50.1 µM (inactive); in the assay on IGROV-1 it was 23.5 µM (inactive); with MCF7, 31.8 µM (inactive); with MOLT-4 it was 3.89 µM (inactive). For the same molecule, the GI50 is 45.3 µM (inactive) in the assay with Malme-3M; 32.4 µM (inactive) in the assay on NCI-H23; > 42.1 µM (inactive) in the assay with PC-3; 84.5 µM (inactive) in the assay on SNB-75; 4.01 µM (inactive) with SR; 59.4 µM (inactive) in the assay on T47D. Moreover, the GI50 in the assay on TK-10 was > 100 µM (inactive); in the assay on UO-31, 4.57 µM (inactive).
As to `Cc1ccc(C(=O)NC2C(=O)NC(C(C)C)C(=O)N3CCCC3C(=O)N(C)CC(=O)N(C)C(C(C)C)C(=O)OC2C)c2c1Oc1c(c(C(=O)NC3C(=O)NC(C(C)C)C(=O)N4CCCC4C(=O)N(C)CC(=O)N(C)C(C(C)C)C(=O)OC3C)c3nc(-c4ccccc4)c(=O)oc3c1C)N2` (stereo not given), the GI50 with A549 is < 0.001 µM (active); in the assay on CCRF-CEM, 0.00255 µM (active); in the assay on COLO 205 it was 0.0039 µM (active); with HCC 2998, < 0.001 µM (active); with HCT-116, < 0.001 µM (active); in the assay on HCT-15 it was 0.0377 µM. The GI50 is 0.00995 µM (active) in the assay with HL-60; < 0.001 µM (active) in the assay on HT-29; 0.00134 µM (active) in the assay on Hs-578T; < 0.001 µM (active) with IGROV-1; < 0.001 µM (active) in the assay on MCF7; 0.00222 µM (active) in the assay on MOLT-4. Further, the GI50 in the assay with Malme-3M was 0.00361 µM (active); with NCI-H23, 0.00167 µM (active); in the assay with PC-3 it was 0.00219 µM (active); in the assay with SNB-75, 0.00101 µM (active); in the assay on SR it was 0.01 µM (active); with T47D, 0.00453 µM (active). For the same molecule, the GI50 is 0.0578 µM (active) in the assay on TK-10 and 0.0103 µM (active) in the assay with UO-31.
On to `CC(C)C[C@H](NC(=O)[C@H](Cc1ccccc1)NC(=O)CCc1ccccc1)B(O)O`, for which the GI50 in the assay with A549 is < 0.01 µM (active); in the assay with CCRF-CEM, < 0.01 µM (active); in the assay on COLO 205, < 0.01 µM (active); in the assay on HCC 2998, < 0.01 µM (active); in the assay with HCT-116, < 0.01 µM (active); in the assay with HCT-15 it was < 0.01 µM. Besides, the GI50 with HL-60, in the assay with HT-29, in the assay on Hs-578T, in the assay on IGROV-1, in the assay on MCF7 and with MOLT-4 was < 0.01 µM (active) throughout. Besides, the GI50 in the assay with Malme-3M, in the assay on NCI-H23, with PC-3, in the assay on SNB-75, in the assay with SR and in the assay with T47D was < 0.01 µM (active) in each case. Further, the GI50 in the assay on TK-10 and in the assay with UO-31 was < 0.01 µM (active) in each case.
Regarding `Cc1nc(O)nc(N/N=C/c2ccc(Cl)c(Cl)c2)c1C(=O)Nc1ccc(Cl)c(Cl)c1`, the GI50 in the assay with A549 is 14 µM (inactive); in the assay with CCRF-CEM, 8.65 µM (inactive); in the assay with COLO 205, 13.1 µM (inactive); in the assay with HCC 2998, > 51.8 µM (inactive); in the assay on HCT-116, 6.75 µM (inactive); with HCT-15, 11.7 µM. The GI50 in the assay with HL-60 is 45.8 µM (inactive); with HT-29, 14.9 µM (inactive); in the assay on Hs-578T it was 10.5 µM (inactive); in the assay with IGROV-1 it was 13.8 µM (inactive); in the assay with MCF7 it was 18.5 µM (inactive); with MOLT-4, 38.5 µM (inactive). Moreover, the GI50 with Malme-3M is 11.6 µM (inactive); with NCI-H23 it was 13.1 µM (inactive); in the assay with PC-3, 12.7 µM (inactive); in the assay with SNB-75, 12.3 µM (inactive); with SR, 36.3 µM (inactive); in the assay on T47D, 24.7 µM (inactive). The GI50 was 11.5 µM (inactive) with TK-10 and > 42.1 µM (inactive) in the assay with UO-31.
For `Clc1cc2ccccc2c2ccccc12`, the GI50 in the assay on A549 was 44 µM (inactive); with CCRF-CEM, < 0.01 µM (active); in the assay with COLO 205 it was 26.9 µM (inactive); in the assay on HCC 2998, 41 µM (inactive); in the assay on HCT-116, > 100 µM (inactive); with HCT-15 it was 25.6 µM. The GI50 is 35.2 µM (inactive) with HL-60; 32.4 µM (inactive) with HT-29; 65.6 µM (inactive) in the assay with Hs-578T; 64 µM (inactive) in the assay on IGROV-1; 31.7 µM (inactive) in the assay on MCF7; 69.2 µM (inactive) with MOLT-4. In addition, the GI50 was 37 µM (inactive) in the assay with Malme-3M; 81.5 µM (inactive) in the assay with NCI-H23; 50.2 µM (inactive) with PC-3; > 100 µM (inactive) in the assay on SNB-75; 30.8 µM (inactive) with SR; 32 µM (inactive) in the assay on T47D. Besides, the values for the GI50 in the assay on TK-10 and in the assay with UO-31 were > 100 µM (inactive) and 97.3 µM (inactive), respectively.
As for `COC1=C2CC(C)CC(OC)C(OC(=O)CCCN)C(C)/C=C(\C)C(OC(N)=O)C(OC)/C=C\C=C(/C)C(=O)NC(=CC1=O)C2=O` (stereo not given), the GI50 in the assay on A549 is 25.5 µM (inactive); in the assay with CCRF-CEM, 0.766 µM (active); in the assay on COLO 205, 0.431 µM (active); with HCC 2998 it was 10.1 µM (inactive); in the assay on HCT-116 it was 3.98 µM (inactive); in the assay with HCT-15 it was 4.97 µM. Moreover, the GI50 was 0.289 µM (active) in the assay on HL-60; 2.43 µM (inactive) in the assay with HT-29; 11.6 µM (inactive) in the assay with Hs-578T; 7.08 µM (inactive) in the assay with IGROV-1; 0.865 µM (active) in the assay on MCF7; 0.815 µM (active) in the assay with MOLT-4. The GI50 is 2.29 µM (inactive) with Malme-3M; 3.65 µM (inactive) with NCI-H23; 9.2 µM (inactive) in the assay on PC-3; 18.7 µM (inactive) in the assay on SNB-75; 3.02 µM (inactive) in the assay with SR; 1.09 µM (active) in the assay on T47D. In addition, the GI50 is 7.16 µM (inactive) in the assay with TK-10 and 10.5 µM (inactive) in the assay on UO-31.
